Patent US20160278367A1, “Pesticidal Composition” (priority 2013, published 2016)

test system: not listed separately; test: solution and stable suspension of citral; format: physicochemical; settings: solution
From the text: (§1) In one embodiment the terpene component includes one or more terpenes which contain oxygen. Citral, for example citral 95, is an oxygenated […], C10H16O CAS No. 5392-40-5 (3,7-dimethyl-2,6-octadien-1-a1). A stable suspension of citral can be formed up to about 2500 ppm. Citral can be made into a solution at up to about 500 ppm. A stable suspension of hollow glucan particles incorporating citral of 25 ppt citral can be made.
as §1, with “(3,7-dimethyl-2,6-octadien-1-a1) .” for “(3,7-dimethyl-2,6-octadien-1-a1).”

Row | Compound | citral can be made into a solution at up to
1 | CC(C)=CCCC(C)=CC=O (mixture of isomers) [Citral, 3,7-dimethyl-2,6-octadien-1-a1] | about 500 ppm

same assay, conditions: suspension

Row | Compound | stable suspension of citral can be formed up to
2 | CC(C)=CCCC(C)=CC=O (mixture of isomers) [Citral, 3,7-dimethyl-2,6-octadien-1-a1] | about 2500 ppm

test system: hematophagous arthropods; test: terpenes fatal to hematophagous arthropods (test not described); settings: not given

Row | Compound | fatal to hematophagous arthropods
3 | C=C(C)C1CC=C(C)C(=O)C1 (stereo not drawn) [carvone] | fatal
4 | C=CC(=C)CCC=C(C)C [myrcene] | fatal
5 | CC(C)=CCC/C(C)=C/CO [geraniol] | fatal
6 | C=CC(C)(O)CCC=C(C)C (stereo not drawn) [linalool] | fatal
7 | C=CCc1ccc(O)c(OC)c1 [eugenol] | fatal
8 | CC(=O)/C=C/C1=C(C)CCCC1(C)C [beta-ionone] | fatal
9 | C=C(C)[C@H]1CC=C(C)CC1 [redistilled limonene, limonene] | fatal
